SMILES strings stand for the structures.

One may read the IC50 as the concentration needed to halve the response being measured.

In this test the target is T1, P2X purinoceptor 7 (Homo sapiens, UniProt Q99572).
T1 sequence (Q99572 whole entry): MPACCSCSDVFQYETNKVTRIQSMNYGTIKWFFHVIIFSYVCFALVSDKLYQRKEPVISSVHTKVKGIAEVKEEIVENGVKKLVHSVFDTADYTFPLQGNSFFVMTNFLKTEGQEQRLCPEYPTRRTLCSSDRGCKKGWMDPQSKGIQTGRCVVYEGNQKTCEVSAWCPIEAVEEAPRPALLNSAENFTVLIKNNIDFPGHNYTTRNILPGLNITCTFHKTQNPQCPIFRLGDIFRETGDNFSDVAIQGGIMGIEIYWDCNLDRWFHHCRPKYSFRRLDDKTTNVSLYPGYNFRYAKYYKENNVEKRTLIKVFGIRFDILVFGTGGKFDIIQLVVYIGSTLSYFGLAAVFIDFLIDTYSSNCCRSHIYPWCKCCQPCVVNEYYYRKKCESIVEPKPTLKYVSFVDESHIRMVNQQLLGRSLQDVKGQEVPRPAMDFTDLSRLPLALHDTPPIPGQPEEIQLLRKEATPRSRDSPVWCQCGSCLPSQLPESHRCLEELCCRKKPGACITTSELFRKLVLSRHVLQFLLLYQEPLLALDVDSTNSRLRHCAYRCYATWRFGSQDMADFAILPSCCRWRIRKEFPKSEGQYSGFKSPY
Put plainly: Ethidium Bromide Uptake Assay. The note with it: pH 7.4. How it is done:
hP2X7-expressing HEK 293 cells were re-suspended at 2.5 × 10^6 cells/mL in assay buffer composed of 10 mM HEPES, 5 mM N-methyl-D-glutamine, 5.6 mM KCl, 10 mM D-glucose, and 0.5 mM CaCl2 (pH 7.4) supplemented with either 280 mM sucrose or 140 mM NaCl, and an 80 µL aliquot was added to each well of a 96-well plate. To each compound were added and KN-62 as the positive control, followed by the hP2X7R agonist benzoyl ATP (BzATP). The plates were incubated at 37 °C for 2 h and the cellular accumulation of ethidium ion was determined by measuring fluorescence (excitation = 530 nm; emission = 590 nm).
`CC12CC3CC(C)(C1)CC(C(=O)NNc1ncnc4nc[nH]c14)(C3)C2` [3,5-Dimethyl-N'-(7H-purin-6-yl)adamantane-1-carbohydrazide (9n)] yielded a half-maximal inhibitory concentration (IC50) of 2880 nM.
The compound `CC12CC3CC(C)(C1)CC(C(=O)NNc1ncnc4ccccc14)(C3)C2` [3,5-Dimethyl-N'-(quinazolin-4-yl)adamantane-1-carbohydrazide (9k)] returned an IC50 of 5500 nM. Against the preceding compound, the IC50 is about 1.9-fold higher.
With `CC12CC3CC(C)(C1)CC(C(=O)NNc1ccc4ccccc4n1)(C3)C2` [3,5-Dimethyl-N'-(quinolin-2-yl)adamantane-1-carbohydrazide (9i)] the figure was 2900 nM; with `CC12CC3CC(C)(C1)CC(C(=O)NNc1cnc4ccccc4c1)(C3)C2` [3,5-Dimethyl-N'-(quinolin-3-yl)adamantane-1-carbohydrazide (9h)], 3700 nM.
With `CC12CC3CC(C)(C1)CC(C(=O)NNc1ccnc4ccccc14)(C3)C2` [3,5-Dimethyl-N'-(quinolin-4-yl)adamantane-1-carbohydrazide (9g)] the figure was 726 nM.
`CC12CC3CC(C)(C1)CC(C(=O)NNc1nc(Cl)nc4nc[nH]c14)(C3)C2` [N'-(2-Chloro-7H-purin-6-yl)-3,5-dimethyladamantane-1-carbohydrazide (9o)]: half-maximal inhibition (IC50) was put at 176 nM. Compared with the last compound, the IC50 is about 4.1-fold lower.
With `CC12CC3CC(C)(C1)CC(C(=O)NNc1ccnc4c(Cl)cccc14)(C3)C2` [N'-(8-Chloroquinoline-4-yl)-3,5-dimethyladamantanehydrazide (9j)] the figure was 1100 nM.

Values taken from BindingDB's records for doi:10.1016/j.bioorg.2015.06.003 (Gwangju Institute of Science and Technology, 2015).
